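96-well plates; 48 h exposure; 5 concentrations. Endpoints by linear interpolation between flanking doses. Not reached: highest tested concentration assigned. GI50 marks 50% less growth.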 Activity calls are given as the source filed them. Rule as the data show it: active = GI50 up to about 1.1 µM and inactive = higher.
What was measured:
Assay in all cases: NCI anticancer screen, dose series, 48 h
[1] = test system: A498
[2] = test system: BT-549
[3] = test system: CAKI-1
[4] = test system: CCRF-CEM
[5] = test system: COLO 205
[6] = test system: DU-145
[7] = test system: HCC 2998
[8] = test system: HCT-116
[9] = test system: HCT-15
[10] = test system: HL-60
[11] = test system: HOP-62
[12] = test system: HT-29
[13] = test system: Hs-578T
[14] = test system: IGROV-1
[15] = test system: K562
[16] = test system: KM12
[17] = test system: M14
[18] = test system: MCF7
[19] = test system: MDA-MB-231
[20] = test system: MDA-MB-435
[21] = test system: MDA-N
[22] = test system: MOLT-4
[23] = test system: Malme-3M
[24] = test system: NCI-H226
[25] = test system: NCI-H23
[26] = test system: NCI-H460
[27] = test system: NCI-H522
[28] = test system: NCI/ADR-RES
[29] = test system: OVCAR-3
[30] = test system: OVCAR-4
[31] = test system: OVCAR-5
[32] = test system: OVCAR-8
[33] = test system: PC-3
[34] = test system: RPMI-8226
[35] = test system: RXF 393
[36] = test system: SF-295
[37] = test system: SK-MEL-28
[38] = test system: SK-MEL-2
[39] = test system: SK-MEL-5
[40] = test system: SK-OV-3
[41] = test system: SN12C
[42] = test system: SNB-19
[43] = test system: SNB-75
[44] = test system: SR
[45] = test system: T47D
[46] = test system: U-251
[47] = test system: UACC-62
[48] = test system: UO-31
[49] = test system: 786-0
[50] = test system: A549
[51] = test system: ACHN
[52] = test system: EKVX
[53] = test system: LOX IMVI
[54] = test system: SF-268
[55] = test system: SF-539
[56] = test system: SW-620
[57] = test system: TK-10
[58] = test system: UACC-257

## S=C1SC(=N\c2ccccc2)/C(=N/c2ccccc2)N1c1ccccc1
[1]
  GI50: > 100 µM (inactive)
[2]
  GI50: > 100 µM (inactive)
[3]
  GI50: > 100 µM (inactive)
[4]
  GI50: 18.1 µM (inactive)
[5]
  GI50: > 100 µM (inactive)
[6]
  GI50: > 100 µM (inactive)
[7]
  GI50: > 100 µM (inactive)
[8]
  GI50: 83.9 µM (inactive)
[9]
  GI50: > 100 µM
[10]
  GI50: > 10 µM (inactive)
[11]
  GI50: 28 µM (inactive)
[12]
  GI50: 87.7 µM (inactive)
[13]
  GI50: 27.9 µM (inactive)
[14]
  GI50: > 100 µM (inactive)
[15]
  GI50: > 100 µM (inactive)
[16]
  GI50: > 100 µM (inactive)
[17]
  GI50: > 100 µM (inactive)
[18]
  GI50: > 100 µM (inactive)
[19]
  GI50: > 100 µM (inactive)
[20]
  GI50: > 100 µM (inactive)
[21]
  GI50: > 100 µM (inactive)
[22]
  GI50: > 100 µM (inactive)
[23]
  GI50: 45.9 µM (inactive)
[24]
  GI50: > 100 µM (inactive)
[25]
  GI50: > 100 µM (inactive)
[26]
  GI50: > 100 µM (inactive)
[27]
  GI50: > 100 µM (inactive)
[28]
  GI50: > 100 µM (inactive)
[29]
  GI50: 34.4 µM (inactive)
[30]
  GI50: 8.53 µM (inactive)
[31]
  GI50: > 100 µM (inactive)
[32]
  GI50: 93.8 µM (inactive)
[33]
  GI50: > 100 µM (inactive)
[34]
  GI50: 31.3 µM (inactive)
[35]
  GI50: > 100 µM (inactive)
[36]
  GI50: 34.5 µM (inactive)
[37]
  GI50: > 100 µM (inactive)
[38]
  GI50: > 100 µM (inactive)
[39]
  GI50: 62.7 µM (inactive)
[40]
  GI50: > 100 µM (inactive)
[41]
  GI50: > 100 µM (inactive)
[42]
  GI50: > 100 µM (inactive)
[43]
  GI50: 19 µM (inactive)
[44]
  GI50: > 100 µM (inactive)
[45]
  GI50: > 100 µM (inactive)
[46]
  GI50: 90.8 µM (inactive)
[47]
  GI50: 22.8 µM (inactive)
[48]
  GI50: > 100 µM (inactive)

## N#C/C=c1/c2ccccc2n2nc3ccccc3c12
[49]
  GI50: 5.01 µM (inactive)
[1]
  GI50: 13.7 µM (inactive)
[50]
  GI50: 30.2 µM (inactive)
[51]
  GI50: 6.71 µM (inactive)
[2]
  GI50: > 100 µM (inactive)
[3]
  GI50: 6.85 µM (inactive)
[4]
  GI50: 81.7 µM (inactive)
[5]
  GI50: 16.8 µM (inactive)
[6]
  GI50: > 100 µM (inactive)
[52]
  GI50: 24.5 µM (inactive)
[7]
  GI50: 26.5 µM (inactive)
[8]
  GI50: 3.09 µM (inactive)
[9]
  GI50: 43.3 µM
[10]
  GI50: > 100 µM (inactive)
[11]
  GI50: 17 µM (inactive)
[12]
  GI50: 25.6 µM (inactive)
[13]
  GI50: 22.1 µM (inactive)
[14]
  GI50: 7.19 µM (inactive)
[15]
  GI50: > 100 µM (inactive)
[16]
  GI50: 17.3 µM (inactive)
[53]
  GI50: 8.13 µM (inactive)
[17]
  GI50: 51.9 µM (inactive)
[18]
  GI50: 11.3 µM (inactive)
[19]
  GI50: 3.61 µM (inactive)
[20]
  GI50: > 100 µM (inactive)
[21]
  GI50: > 100 µM (inactive)
[23]
  GI50: 46.6 µM (inactive)
[25]
  GI50: 22.3 µM (inactive)
[26]
  GI50: 8.09 µM (inactive)
[27]
  GI50: 12.5 µM (inactive)
[28]
  GI50: 14.9 µM (inactive)
[29]
  GI50: 34.5 µM (inactive)
[30]
  GI50: 11.6 µM (inactive)
[31]
  GI50: 67.6 µM (inactive)
[32]
  GI50: 11.7 µM (inactive)
[33]
  GI50: 68.4 µM (inactive)
[34]
  GI50: 7.36 µM (inactive)
[35]
  GI50: 16.8 µM (inactive)
[54]
  GI50: 10.9 µM (inactive)
[36]
  GI50: 21.7 µM (inactive)
[55]
  GI50: 8.69 µM (inactive)
[37]
  GI50: > 100 µM (inactive)
[38]
  GI50: 48.6 µM (inactive)
[39]
  GI50: 26.7 µM (inactive)
[40]
  GI50: 5.65 µM (inactive)
[41]
  GI50: 25.2 µM (inactive)
[42]
  GI50: 16 µM (inactive)
[44]
  GI50: 5.79 µM (inactive)
[56]
  GI50: 25.6 µM (inactive)
[45]
  GI50: > 100 µM (inactive)
[57]
  GI50: 8.02 µM (inactive)
[46]
  GI50: 12 µM (inactive)
[58]
  GI50: > 100 µM (inactive)
[47]
  GI50: 14.9 µM (inactive)
[48]
  GI50: 10.8 µM (inactive)

— ChEMBL document CHEMBL1201862, “PubChem BioAssay data set” (2004)
